Target: T1, human GPR84 receptor (Homo sapiens, UniProt Q9NQS5)
T1 construct: frozen aliquots prepared by acCELLerate; host or cells: CHO-K1
Assay: cAMP HTRF assay for identification of cellular GPR84 antagonists
Assay type: cell-based
Settings: CHO-K1 cells stably expressing human GPR84; Forskolin plus agonist 6-OAU; cAMP HTRF readout; average or median values
Text: cAMP HTRF® Assay for Identification of Cellular GPR84 Antagonists
By using a Homogenous Time-Resolved Fluorescence (HTRF®) based assay (#62AM5PEJ, Cisbio, Condolet, France) the inhibition of the Gi-coupled GPR84 receptor can be detected. CHO-K1 cells stably expressing human GPR84 receptor (purchased from DiscoveRx, now Eurofins) were used and treated with Forskolin (F6886, Sigma, Germany) to stimulate membrane adenylyl cyclases and thereby unspecific cAMP formation. Activation of the Gi-coupled GPR84 by a natural or small molecule agonist (e.g. 6-n-octyl aminouracile, inhouse) results in inhibition of cellular cAMP formation which can be released again by antagonists to this receptor. Detection and quantification of cellular cAMP levels in this HTRF assay is achieved by interaction between a fluorescent cAMP tracer (cAMP-d2) and an Eu-cryptate labelled anti-cAMP antibody. Following excitation at 337 nm this pairing allows for the generation of a fluorescence resonance energy transfer (FRET) between the partners and results in FRET induced emissions at 665 nm and 620 nm, the latter representing background signal by Eu-cryptate labelled anti-cAMP antibody. Maximal signal is obtained in the absence of any cellular cAMP (no competition for the binding of the tracer to the antibody). Given the combination of the Gi coupling properties of GPR84 and the competitive nature of the detection system agonist treatment should result in an increase in the HTRF signal due to lowered cAMP levels. Any signal decrease in the presence of Forskolin, agonist and compound are indicative of antagonist mediated abrogation of GPR84 signalling.
For the assay, frozen aliquots of CHO-K1 cells expressing hGPR84 (prepared by acCELLerate, Hamburg, Germany) were thawed and a cell suspension (1.67E+06 cells/mL) in assay media (Ham's F12 Nutrient Mix, Thermo Fisher Scientific, Waltham, USA; 5% fetal calf serum, Biomol, Hamburg, Germany) containing cAMP-d2 (dilution 1:20, supplied with the kit #62AM5PEJ, Cisbio, Condolet, France) was prepared. After recovery of cells for 20 minutes at 37° C., 3 μL/well cell suspension including cAMP-d2 were added to a pre-dispensed assay plate (Greiner Bio-One, Kremsmuenster, Austria) containing 50 nl/well test compound in 100% DMSO or 100% DMSO as control. This was followed by a 30 minute incubation step at room temperature. The stimulation time was started by addition of 2 μL/well assay media containing 2.5×EC80 agonist 6-OAU and 2.5×EC90 Forskolin (negative control: 2.5×EC90 Forskolin in assay media) and was continued for 30 minutes at room temperature. The reaction was stopped by addition of 3 μL/well lysis buffer containing cAMP Eu-Cryptate antibody (dilution 1:20) (both supplied with the kit #62AM5PEJ, Cisbio, Condolet, France). To enable complete lysis, plates were incubated for 60 minutes at room temperature before measurement in an HTRF reader, e.g. a PHERAstar (BMG Labtech, Ortenberg, Germany).
From the fluorescence emissions at 665 nm (FRET) and at 620 nm (background signal of Eu-cryptate) the ratio (emission at 665 nm divided by emission at 620 nm×10000) was calculated and the data were normalized (reaction without test compound, only 100% DMSO=0% inhibition; all other assay components except agonist=100% inhibition). For dose response testing on the same microtiter plate, compounds were tested at 11 different concentrations in the range of 20 μM to 0.07 nM (20 μM, 5.7 μM, 1.6 μM, 0.47 μM, 0.13 μM, 38 nM, 11 nM, 3.1 nM, 0.89 nM, 0.25 and 0.07 nM; dilution series prepared before the assay at the level of the 100-fold conc. stock solutions by serial 1:3.5 dilutions in 100% DMSO) in duplicate values for each concentration. IC50 values were calculated by 4-parameter fitting using a commercial software package (Genedata Screener, Basel, Switzerland).
Examples were tested in selected biological assays one or more times. […]

T1 sequence (Q9NQS5 whole entry): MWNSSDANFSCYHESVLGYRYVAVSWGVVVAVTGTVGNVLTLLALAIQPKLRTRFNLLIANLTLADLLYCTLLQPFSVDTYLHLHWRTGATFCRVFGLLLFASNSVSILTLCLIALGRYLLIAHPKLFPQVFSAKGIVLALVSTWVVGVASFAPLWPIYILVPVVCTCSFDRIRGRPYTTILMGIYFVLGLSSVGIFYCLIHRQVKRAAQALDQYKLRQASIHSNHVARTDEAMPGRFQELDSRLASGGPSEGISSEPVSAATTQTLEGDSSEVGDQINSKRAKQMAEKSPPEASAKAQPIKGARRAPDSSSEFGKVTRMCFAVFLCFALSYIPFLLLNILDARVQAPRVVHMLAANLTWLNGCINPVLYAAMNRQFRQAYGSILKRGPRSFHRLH

Row | Compound | IC50
1 | Cc1c(C(=O)N(C)Cc2ncc[nH]2)oc2c1-c1nn(Cc3ccc(Cl)cc3)cc1CC2 [Example 74, 2-[(4-chlorophenyl)methyl]-N-[(1H-imidazol-2-yl)methyl]-N,8-dimethyl-4,5-dihydro-2H-furo[2,3-g]indazole-7-carboxamide] | 10800 nM
2 | Cc1c(C(=O)N2CC3CC3C2)oc2c1-c1nn(Cc3ccc(Cl)cc3)cc1CC2 (stereo not drawn) [Example 68, (3-azabicyclo[3.1.0]hexan-3-yl){2-[(4-chlorophenyl)methyl]-8-methyl-4,5-dihydro-2H-furo[2,3-g]indazol-7-yl}methanone] | 7970 nM
3 | Cc1c(C(=O)NCCC#N)oc2c1-c1nn(Cc3ccc(Cl)cc3)cc1CC2 [Example 70, 2-[(4-chlorophenyl)methyl]-N-(2-cyanoethyl)-8-methyl-4,5-dihydro-2H-furo[2,3-g]indazole-7-carboxamide] | 9500 nM
4 | Cc1c(C(=O)NCc2cnn(C)c2)oc2c1-c1nn(Cc3ccc(Cl)cc3)cc1CC2 [Example 47, 2-[(4-chlorophenyl)methyl]-8-methyl-N-[(1-methyl-1H-pyrazol-4-yl)methyl]-4,5-dihydro-2H-furo[2,3-g]indazole-7-carboxamide] | 1870 nM
5 | Cc1c(C(=O)NCCN2CCC2)oc2c1-c1nn(Cc3cccc(Cl)c3)cc1CC2 [Example 20, N-[2-(azetidin-1-yl)ethyl]-2-[(3-chlorophenyl)methyl]-8-methyl-4,5-dihydro-2H-furo[2,3-g]indazole-7-carboxamide] | 1540 nM
6 | CC(=O)N1CCN(C(=O)CNC(=O)c2oc3c(c2C)-c2nn(Cc4ccc(Cl)cc4)cc2CC3)CC1 [Example 29, N-[2-(4-acetylpiperazin-1-yl)-2-oxoethyl]-2-[(4-chlorophenyl)methyl]-8-methyl-4,5-dihydro-2H-furo[2,3-g]indazole-7-carboxamide] | 8210 nM
7 | Cc1c(C(=O)NCCO)oc2c1-c1nn(Cc3ccc(Cl)cc3)cc1CC2 [Example 58, 2-[(4-chlorophenyl)methyl]-N-(2-hydroxyethyl)-8-methyl-4,5-dihydro-2H-furo[2,3-g]indazole-7-carboxamide] | 5220 nM
8 | Cc1ccccc1Cn1cc2c(n1)-c1c(oc(C(=O)NCC3CCCN3C(=O)OC(C)(C)C)c1C)CC2 (racemic) [Example 6, tert-butyl (2RS)-2-[{{8-methyl-2-[(2-methylphenyl)methyl]-4,5-dihydro-2H-furo[2,3-g]indazole-7-carbonyl}amino)methyl]pyrrolidine-1-carboxylate] | 2220 nM
9 | Cc1c(C(=O)NCc2cncn2C)oc2c1-c1nn(Cc3ccc(Cl)cc3)cc1CC2 [Example 54, 2-[(4-chlorophenyl)methyl]-8-methyl-N-[(1-methyl-1H-imidazol-5-yl)methyl]-4,5-dihydro-2H-furo[2,3-g]indazole-7-carboxamide] | 3390 nM
10 | Cc1c(C(=O)NCC(C)(C)O)oc2c1-c1nn(Cc3ccc(Cl)cc3)cc1CC2 [Example 60, 2-[(4-chlorophenyl)methyl]-N-(2-hydroxy-2-methylpropyl)-8-methyl-4,5-dihydro-2H-furo[2,3-g]indazole-7-carboxamide] | 5640 nM
11 | Cc1c(C(=O)NCc2nccn2C)oc2c1-c1nn(Cc3ccc(Cl)cc3)cc1CC2 [Example 53, 2-[(4-chlorophenyl)methyl]-8-methyl-N-[(1-methyl-1H-imidazol-2-yl)methyl]-4,5-dihydro-2H-furo[2,3-g]indazole-7-carboxamide] | 3040 nM
12 | Cc1c(C(=O)N(C)CCO)oc2c1-c1nn(Cc3ccc(Cl)cc3)cc1CC2 [Example 85, 2-[(4-chlorophenyl)methyl]-N-(2-hydroxyethyl)-N,8-dimethyl-4,5-dihydro-2H-furo[2,3-g]indazole-7-carboxamide] | 17000 nM
13 | Cc1c(C(=O)N2CCC(C(N)=O)CC2)oc2c1-c1nn(Cc3ccc(Cl)cc3)cc1CC2 [Example 83, 1-{2-[(4-chlorophenyl)methyl]-8-methyl-4,5-dihydro-2H-furo[2,3-g]indazole-7-carbonyl}piperidine-4-carboxamide] | 16400 nM
14 | Cc1c(C(=O)N(C)Cc2ccn(C)n2)oc2c1-c1nn(Cc3ccc(Cl)cc3)cc1CC2 [Example 73, 2-[(4-chlorophenyl)methyl]-N,8-dimethyl-N-[(1-methyl-1H-pyrazol-3-yl)methyl]-4,5-dihydro-2H-furo[2,3-g]indazole-7-carboxamide] | 10300 nM

Stronger by IC50, values ahead:

Row | IC50 | Compound
15 | 1000 nM | Cc1c(C(=O)NCCN2CCCC2)oc2c1-c1nn(Cc3cccc(Cl)c3)cc1CC2 [Example 18, 2-[(3-chlorophenyl)methyl]-8-methyl-N-[2-(pyrrolidin-1-yl)ethyl]-4,5-dihydro-2H-furo[2,3-g]indazole-7-carboxamide]
16 | 360 nM | Cc1c(C(=O)NCCN2CCCCC2)oc2c1-c1nn(Cc3ccccc3Cl)cc1CC2 [Example 13, 2-[(2-chlorophenyl)methyl]-8-methyl-N-[2-(piperidin-1-yl)ethyl]-4,5-dihydro-2H-furo[2,3-g]indazole-7-carboxamide]
17 | 140 nM | Cc1ccc(Cn2cc3c(n2)-c2c(oc(C(=O)NCc4ccon4)c2C)CC3)cc1 [Example 3, 8-methyl-2-[(4-methylphenyl)methyl]-N-[(1,2-oxazol-3-yl)methyl]-4,5-dihydro-2H-furo[2,3-g]indazole-7-carboxamide]
18 | 300 nM | Cc1c(C(=O)NCCN2CCCC2)oc2c1-c1nn(Cc3ccccc3Cl)cc1CC2 [Example 12, 2-[(2-chlorophenyl)methyl]-8-methyl-N-[2-(pyrrolidin-1-yl)ethyl]-4,5-dihydro-2H-furo[2,3-g]indazole-7-carboxamide]
19 | 42 nM | Cc1ccc(CNC(=O)c2oc3c(c2C)-c2nn(Cc4ccccc4Cl)cc2CC3)cc1 [Example 10, 2-[(2-chlorophenyl)methyl]-8-methyl-N-[(4-methylphenyl)methyl]-4,5-dihydro-2H-furo[2,3-g]indazole-7-carboxamide]
20 | 7 nM | Cc1ccc(Cn2cc3c(n2)-c2c(oc(C(=O)NC[C@@H]4COCCO4)c2C)CC3)cc1 [Example 2, N-{[(2R)-1,4-dioxan-2-yl]methyl}-8-methyl-2-[(4-methylphenyl)methyl]-4,5-dihydro-2H-furo[2,3-g]indazole-7-carboxamide]
21 | 410 nM | COCCNC(=O)c1oc2c(c1C)-c1nn(Cc3ccc(Cl)cc3)cc1CC2 [Example 40, 2-[(4-chlorophenyl)methyl]-N-(2-methoxyethyl)-8-methyl-4,5-dihydro-2H-furo[2,3-g]indazole-7-carboxamide]
22 | 1190 nM | Cc1c(C(=O)NCC(=O)N(C)C)oc2c1-c1nn(Cc3ccc(Cl)cc3)cc1CC2 [Example 36, 2-[(4-chlorophenyl)methyl]-N-[2-(dimethylamino)-2-oxoethyl]-8-methyl-4,5-dihydro-2H-furo[2,3-g]indazole-7-carboxamide]
23 | 1430 nM | Cc1c(C(=O)NCc2ccncc2)oc2c1-c1nn(Cc3ccc(Cl)cc3)cc1CC2 [Example 45, 2-[(4-chlorophenyl)methyl]-8-methyl-N-[(pyridin-4-yl)methyl]-4,5-dihydro-2H-furo[2,3-g]indazole-7-carboxamide]
24 | 46 nM | Cc1c(C(=O)NCC2CCCO2)oc2c1-c1nn(Cc3ccccc3Cl)cc1CC2 (racemic) [Example 9, 2-[(2-chlorophenyl)methyl]-8-methyl-N-[(2RS)-tetrahydrofuran-2-ylmethyl]-4,5-dihydro-2H-furo[2,3-g]indazole-7-carboxamide]
